pIC50: −log10 of the molar value.
Key:
p53 Lys370 methylation = assay: Western blot time course and subcellular fractionation, KYSE-150 cells stably expressing FLAG-SMYD2; type: cell-based, human
Description: 5 × 10^6 KYSE-150 cells or KYSE-150 cells stably overexpressing SMYD2 were harvested and separated into subcellular fractions using the Subcellular Protein Fractionation kit for cultured cells (Thermo Scientific) according to the manufacturer's instructions. Lysates were reduced, boiled, subjected to 4–20% SDS-PAGE, and transferred to nitrocellulose membranes. […] Each membrane was then incubated with ECL anti-rabbit or anti-mouse IgG HRP-linked whole antibody (GE Healthcare) followed by detection with SuperSignal West Femto Maximum Sensitivity Substrate (Thermo Scientific) on a ChemiDoc^TM XRS system (Bio-Rad). Primary tumor lysates in RIPA buffer were obtained from Crownbio Bioscience. Cancer cell lines were obtained from the German Collection of Microorganisms and Cell Cultures GmbH (DSMZ), the Korean Cell Line Bank, the Japanese Collection of Research Bio-Resources, or the American Type Culture Collection (ATCC). Tumor cells were lysed in buffer containing 50 mM Tris-HCl, pH 7.5, 500 mM NaCl, 1% Nonidet P-40, 0.25% sodium deoxycholate, 20 mM NaF, protease inhibitor mixture (Roche Applied Science), and phosphatase inhibitor mixtures I and II (Sigma). Tumor or cell lysates were boiled, subjected to 4–20% SDS-PAGE, and transferred to nitrocellulose membrane. Each membrane was blocked in Odyssey Blocking Buffer and incubated with custom-made mouse monoclonal anti-SMYD2 or mouse monoclonal anti-β-actin (Sigma) antibody followed by detection with IRDye680RD goat anti-mouse IgG on the Odyssey Imager.

hABL1(T315I) = molecular target: T1, hABL1(T315I) (Homo sapiens, UniProt P00519, T315I); assay: KINOMEscan; type: binding
T1 construct: purchased DiscoverX (KINOMEscan platform)

hAURKA = molecular target: T2, hAURKA (Homo sapiens, UniProt O14965); assay: KINOMEscan; type: binding
T2 construct: purchased DiscoverX

hBLK = molecular target: T3, hBLK (Homo sapiens, UniProt P51451); assay: KINOMEscan; type: binding
T3 construct: purchased DiscoverX

hBMPR1B = molecular target: T4, hBMPR1B (Homo sapiens, UniProt O00238); assay: KINOMEscan; type: binding
T4 construct: purchased DiscoverX

hCAMK1D = molecular target: T5, hCAMK1D (Homo sapiens, UniProt Q8IU85); assay: KINOMEscan; type: binding
T5 construct: purchased DiscoverX

hCDKL5 = molecular target: T6, hCDKL5 (Homo sapiens, UniProt O76039); assay: KINOMEscan; type: binding
T6 construct: purchased DiscoverX

hCSNK1G2 = molecular target: T7, hCSNK1G2 (Homo sapiens, UniProt P78368); assay: KINOMEscan; type: binding
T7 construct: purchased DiscoverX (KINOMEscan platform)

hEPHA5 = molecular target: T8, hEPHA5 (Homo sapiens, UniProt P54756); assay: KINOMEscan; type: binding
T8 construct: purchased DiscoverX

hFGFR4 = molecular target: T9, hFGFR4 (Homo sapiens, UniProt P22455); assay: KINOMEscan; type: binding
T9 construct: purchased DiscoverX

hGAK = molecular target: T10, hGAK (Homo sapiens, UniProt O14976); assay: KINOMEscan; type: binding
T10 construct: purchased DiscoverX

hIRAK1 = molecular target: T11, hIRAK1 (Homo sapiens, UniProt P51617); assay: KINOMEscan; type: binding
T11 construct: purchased DiscoverX (KINOMEscan panel)

hJNK3 = molecular target: T12, hJNK3 (Homo sapiens, UniProt P53779); assay: KINOMEscan; type: binding
T12 construct: purchased DiscoverX (KINOMEscan panel)

hLRRK2 = molecular target: T13, hLRRK2 (Homo sapiens, UniProt Q5S007); assay: KINOMEscan; type: binding
T13 construct: purchased DiscoverX (KINOMEscan platform)

hLTK = molecular target: T14, hLTK (Homo sapiens, UniProt P29376); assay: KINOMEscan; type: binding
T14 construct: purchased DiscoverX (KINOMEscan platform)

hMAP3K3 = molecular target: T15, hMAP3K3 (Homo sapiens, UniProt Q99759); assay: KINOMEscan; type: binding
T15 construct: purchased DiscoverX (KINOMEscan platform)

hMARK3 = molecular target: T16, hMARK3 (Homo sapiens, UniProt P27448); assay: KINOMEscan; type: binding
T16 construct: purchased DiscoverX

hMKK7 = molecular target: T17, hMKK7 (Homo sapiens, UniProt O14733); assay: KINOMEscan; type: binding
T17 construct: purchased DiscoverX

hMKNK1 = molecular target: T18, hMKNK1 (Homo sapiens, UniProt Q9BUB5); assay: KINOMEscan; type: binding
T18 construct: purchased DiscoverX

hRIOK3 = molecular target: T19, hRIOK3 (Homo sapiens, UniProt O14730); assay: KINOMEscan; type: binding
T19 construct: purchased DiscoverX (KINOMEscan platform)

hRIPK5 = molecular target: T20, hRIPK5 (Homo sapiens, UniProt Q6XUX3); assay: KINOMEscan; type: binding
T20 construct: purchased DiscoverX (KINOMEscan platform)

[1] = molecular target: T21, hRPS6KA5(Kin.Dom.2-C-term) (Homo sapiens, UniProt O75582); assay: KINOMEscan; type: binding
T21 construct: hRPS6KA5(Kin.Dom.2-C-term); purchased DiscoverX (KINOMEscan platform)

hS6K1 = molecular target: T22, hS6K1 (Homo sapiens, UniProt P23443); assay: KINOMEscan; type: binding
T22 construct: purchased DiscoverX (KINOMEscan platform)

hSGK = molecular target: T23, hSGK (Homo sapiens, UniProt O00141); assay: KINOMEscan; type: binding
T23 construct: purchased DiscoverX (KINOMEscan platform)

hSRPK2 = molecular target: T24, hSRPK2 (Homo sapiens, UniProt P78362); assay: KINOMEscan; type: binding
T24 construct: purchased DiscoverX (KINOMEscan platform)

hTYK2(JH1Dom.-catalytic) = molecular target: T25, hTYK2(JH1Dom.-catalytic) (Homo sapiens, UniProt P29597); assay: KINOMEscan; type: binding
T25 construct: hTYK2(JH1Dom.-catalytic); purchased DiscoverX

hULK2 = molecular target: T26, hULK2 (Homo sapiens, UniProt Q8IYT8); assay: KINOMEscan; type: binding
T26 construct: purchased DiscoverX

hWNK3 = molecular target: T27, hWNK3 (Homo sapiens, UniProt Q9BYP7); assay: KINOMEscan; type: binding
T27 construct: purchased DiscoverX

CYP2D6 = molecular target: T28, CYP2D6 (Homo sapiens, UniProt P10635); assay: Cytochrome p450 inhibition (Eurofins-CEREP); type: in vitro ADME
T28 construct: Eurofins-CEREP

hADRβ2 = hADRβ2 (Homo sapiens, UniProt P07550); assay: β-arrestin Antagonist (Eurofins-CEREP); conditions: read-out: % Effect, Inhibition
hFXR = hFXR (Homo sapiens, UniProt Q96RI1); assay: Nuclear hormone receptor assay (Eurofins-CEREP)
h5HT2B = h5HT2B (Homo sapiens, UniProt P41595); assay: Calcium Mobilization Potentiation (Eurofins-CEREP); conditions: @ 10 μM

T3 sequence (P51451 whole entry): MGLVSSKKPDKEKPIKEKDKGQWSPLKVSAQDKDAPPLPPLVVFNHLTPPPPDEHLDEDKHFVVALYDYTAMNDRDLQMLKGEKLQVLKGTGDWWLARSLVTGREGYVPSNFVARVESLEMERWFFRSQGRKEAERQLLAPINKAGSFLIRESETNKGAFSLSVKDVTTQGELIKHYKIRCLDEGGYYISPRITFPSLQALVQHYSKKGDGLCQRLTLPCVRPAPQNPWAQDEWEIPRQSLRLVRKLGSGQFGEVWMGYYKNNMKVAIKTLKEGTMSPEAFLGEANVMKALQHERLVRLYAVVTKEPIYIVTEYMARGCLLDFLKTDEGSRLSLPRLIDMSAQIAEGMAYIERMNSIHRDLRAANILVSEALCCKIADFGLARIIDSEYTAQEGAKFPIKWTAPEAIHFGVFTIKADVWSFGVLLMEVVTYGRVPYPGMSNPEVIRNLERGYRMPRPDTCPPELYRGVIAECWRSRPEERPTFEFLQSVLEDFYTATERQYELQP
T4 sequence (O00238 14-502): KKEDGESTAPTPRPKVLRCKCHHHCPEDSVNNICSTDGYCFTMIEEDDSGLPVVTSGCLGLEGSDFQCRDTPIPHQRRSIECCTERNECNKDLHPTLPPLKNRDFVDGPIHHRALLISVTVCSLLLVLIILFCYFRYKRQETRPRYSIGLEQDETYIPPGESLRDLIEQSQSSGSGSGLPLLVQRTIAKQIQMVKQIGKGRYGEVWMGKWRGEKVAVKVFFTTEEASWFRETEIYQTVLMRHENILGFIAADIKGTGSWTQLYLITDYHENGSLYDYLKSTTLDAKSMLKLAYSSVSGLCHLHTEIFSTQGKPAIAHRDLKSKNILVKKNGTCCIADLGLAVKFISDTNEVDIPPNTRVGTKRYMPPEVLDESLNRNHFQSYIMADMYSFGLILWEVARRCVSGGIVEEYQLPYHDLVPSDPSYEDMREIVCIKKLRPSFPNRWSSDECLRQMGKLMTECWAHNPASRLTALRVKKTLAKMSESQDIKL
T10 sequence (O14976 whole entry): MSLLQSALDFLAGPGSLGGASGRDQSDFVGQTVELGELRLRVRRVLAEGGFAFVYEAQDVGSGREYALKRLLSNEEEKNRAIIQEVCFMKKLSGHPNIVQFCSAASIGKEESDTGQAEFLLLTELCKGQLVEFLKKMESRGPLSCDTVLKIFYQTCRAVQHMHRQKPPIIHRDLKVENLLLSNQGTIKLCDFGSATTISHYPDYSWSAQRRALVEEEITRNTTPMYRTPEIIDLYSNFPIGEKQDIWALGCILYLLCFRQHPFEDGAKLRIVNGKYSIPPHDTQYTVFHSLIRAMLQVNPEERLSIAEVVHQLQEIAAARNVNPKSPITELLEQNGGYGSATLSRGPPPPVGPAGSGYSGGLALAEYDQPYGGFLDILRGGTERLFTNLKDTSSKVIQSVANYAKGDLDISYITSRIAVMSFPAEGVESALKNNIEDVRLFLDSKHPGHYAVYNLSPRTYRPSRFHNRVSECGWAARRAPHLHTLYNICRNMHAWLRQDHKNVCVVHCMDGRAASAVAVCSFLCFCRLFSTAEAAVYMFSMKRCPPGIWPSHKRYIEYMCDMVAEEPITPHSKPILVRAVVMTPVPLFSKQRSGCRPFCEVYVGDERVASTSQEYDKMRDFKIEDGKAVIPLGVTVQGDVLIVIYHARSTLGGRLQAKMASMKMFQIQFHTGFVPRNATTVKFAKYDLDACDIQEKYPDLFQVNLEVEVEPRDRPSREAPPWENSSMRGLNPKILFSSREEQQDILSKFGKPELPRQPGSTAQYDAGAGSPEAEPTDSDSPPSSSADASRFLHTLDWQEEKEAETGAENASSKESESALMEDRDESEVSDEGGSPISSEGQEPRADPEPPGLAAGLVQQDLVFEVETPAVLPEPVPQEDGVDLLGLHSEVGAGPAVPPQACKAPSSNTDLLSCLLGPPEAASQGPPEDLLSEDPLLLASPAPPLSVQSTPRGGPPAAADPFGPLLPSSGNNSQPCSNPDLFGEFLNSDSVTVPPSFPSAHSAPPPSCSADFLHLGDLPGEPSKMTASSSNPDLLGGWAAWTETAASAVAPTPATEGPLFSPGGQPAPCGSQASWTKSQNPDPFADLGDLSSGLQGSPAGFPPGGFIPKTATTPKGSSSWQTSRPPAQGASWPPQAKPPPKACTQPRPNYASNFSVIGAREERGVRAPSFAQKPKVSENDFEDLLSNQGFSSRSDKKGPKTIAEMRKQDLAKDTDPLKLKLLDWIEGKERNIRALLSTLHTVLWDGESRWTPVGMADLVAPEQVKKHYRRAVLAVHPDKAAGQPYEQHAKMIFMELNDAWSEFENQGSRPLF
T13 sequence (Q5S007 whole entry): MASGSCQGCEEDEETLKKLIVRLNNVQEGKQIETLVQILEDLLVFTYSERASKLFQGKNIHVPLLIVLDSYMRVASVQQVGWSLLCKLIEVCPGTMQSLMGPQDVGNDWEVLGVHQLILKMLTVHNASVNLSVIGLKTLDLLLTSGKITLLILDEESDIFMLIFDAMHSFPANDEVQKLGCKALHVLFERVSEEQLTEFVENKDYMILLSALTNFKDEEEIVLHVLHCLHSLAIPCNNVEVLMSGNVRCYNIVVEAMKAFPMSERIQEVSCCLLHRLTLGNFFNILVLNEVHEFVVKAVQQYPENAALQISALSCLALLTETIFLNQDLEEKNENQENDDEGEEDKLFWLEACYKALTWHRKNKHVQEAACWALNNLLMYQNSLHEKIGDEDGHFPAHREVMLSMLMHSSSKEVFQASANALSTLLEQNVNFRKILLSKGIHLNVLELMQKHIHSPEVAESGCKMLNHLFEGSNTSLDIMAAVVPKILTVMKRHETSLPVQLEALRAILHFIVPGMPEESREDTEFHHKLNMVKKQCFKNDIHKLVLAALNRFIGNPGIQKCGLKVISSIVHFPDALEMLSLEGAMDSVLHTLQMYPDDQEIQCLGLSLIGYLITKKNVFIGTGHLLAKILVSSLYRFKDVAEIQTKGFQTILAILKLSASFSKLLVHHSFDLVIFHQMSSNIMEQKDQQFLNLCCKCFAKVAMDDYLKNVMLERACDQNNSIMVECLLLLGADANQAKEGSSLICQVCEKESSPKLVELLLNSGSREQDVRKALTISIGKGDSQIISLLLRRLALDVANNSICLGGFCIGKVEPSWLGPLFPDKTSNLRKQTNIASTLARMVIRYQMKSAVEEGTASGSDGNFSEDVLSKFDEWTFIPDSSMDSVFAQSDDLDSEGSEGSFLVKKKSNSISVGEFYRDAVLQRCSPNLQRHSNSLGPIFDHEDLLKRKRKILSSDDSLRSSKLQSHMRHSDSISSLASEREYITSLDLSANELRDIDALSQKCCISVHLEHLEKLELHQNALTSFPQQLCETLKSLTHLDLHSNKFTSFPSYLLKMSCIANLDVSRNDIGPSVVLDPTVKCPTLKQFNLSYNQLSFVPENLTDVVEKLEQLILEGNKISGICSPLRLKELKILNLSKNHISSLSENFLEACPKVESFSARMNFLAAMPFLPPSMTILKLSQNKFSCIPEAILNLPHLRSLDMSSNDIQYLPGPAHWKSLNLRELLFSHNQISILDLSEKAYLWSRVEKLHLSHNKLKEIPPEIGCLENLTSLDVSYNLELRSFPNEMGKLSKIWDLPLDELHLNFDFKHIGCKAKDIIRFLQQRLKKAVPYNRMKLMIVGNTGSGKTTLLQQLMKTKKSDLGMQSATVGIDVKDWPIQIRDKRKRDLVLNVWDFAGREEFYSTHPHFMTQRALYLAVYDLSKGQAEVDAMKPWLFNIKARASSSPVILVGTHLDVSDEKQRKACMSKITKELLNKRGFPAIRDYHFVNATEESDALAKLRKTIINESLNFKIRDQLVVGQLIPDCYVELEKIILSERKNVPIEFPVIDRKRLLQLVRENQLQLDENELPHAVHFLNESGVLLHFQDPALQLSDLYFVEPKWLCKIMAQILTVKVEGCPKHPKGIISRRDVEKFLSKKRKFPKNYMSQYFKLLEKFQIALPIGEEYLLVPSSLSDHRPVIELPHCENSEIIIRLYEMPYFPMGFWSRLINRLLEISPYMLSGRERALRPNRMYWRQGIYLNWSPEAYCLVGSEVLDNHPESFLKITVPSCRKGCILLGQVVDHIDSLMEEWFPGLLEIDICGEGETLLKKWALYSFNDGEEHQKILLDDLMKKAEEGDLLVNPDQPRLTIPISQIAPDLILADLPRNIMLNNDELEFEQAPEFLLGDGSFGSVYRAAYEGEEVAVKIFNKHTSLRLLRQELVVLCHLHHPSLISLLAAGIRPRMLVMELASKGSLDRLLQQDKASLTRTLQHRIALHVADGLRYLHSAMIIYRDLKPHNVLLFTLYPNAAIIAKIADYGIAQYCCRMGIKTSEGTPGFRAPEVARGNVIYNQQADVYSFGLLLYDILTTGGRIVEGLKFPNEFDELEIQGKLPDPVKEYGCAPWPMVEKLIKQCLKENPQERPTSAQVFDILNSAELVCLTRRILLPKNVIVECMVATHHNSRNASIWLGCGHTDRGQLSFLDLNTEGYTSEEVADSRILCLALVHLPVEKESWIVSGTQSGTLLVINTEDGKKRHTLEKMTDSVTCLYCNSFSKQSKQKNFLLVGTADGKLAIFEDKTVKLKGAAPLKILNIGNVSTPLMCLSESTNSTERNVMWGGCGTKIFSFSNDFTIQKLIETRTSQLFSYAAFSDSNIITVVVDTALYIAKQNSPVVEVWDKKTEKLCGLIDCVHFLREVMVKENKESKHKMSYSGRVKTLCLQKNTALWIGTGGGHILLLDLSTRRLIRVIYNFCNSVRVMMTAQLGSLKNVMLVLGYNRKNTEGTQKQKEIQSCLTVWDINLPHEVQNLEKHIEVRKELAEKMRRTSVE
T25 sequence (P29597 897-1176 limits assumed): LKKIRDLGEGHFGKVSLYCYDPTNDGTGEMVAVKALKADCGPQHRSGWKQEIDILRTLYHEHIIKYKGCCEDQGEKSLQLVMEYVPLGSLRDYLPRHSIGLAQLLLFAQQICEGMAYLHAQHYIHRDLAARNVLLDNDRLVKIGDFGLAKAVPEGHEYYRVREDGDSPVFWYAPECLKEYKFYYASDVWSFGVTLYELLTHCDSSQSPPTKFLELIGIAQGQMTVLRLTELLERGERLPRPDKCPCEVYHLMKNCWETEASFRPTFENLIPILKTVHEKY

## Cc1cn(CCN2CCN(c3ccccc3-c3cc(C#N)cc(C(=O)NCCCN4CCCC4)c3)CC2)c2ccccc12 [LLY-507, 3-cyano-5-{2-[4-[2-(3-methylindol-1-yl)ethyl]piperazin-1-yl]-phenyl}-N-[(3-pyrrolidin-1-yl)propyl]benzamide]
p53 Lys370 methylation; 5 μM LLY-507, SMYD2-overexpressing KYSE-150
  time by which significant reductions in p53 Lys370 methylation occurred: ≤ 18 h
p53 Lys370 methylation; KYSE-150 FLAG-SMYD2
  total levels of p53: not significantly affected
p53 Lys370 methylation; cytoplasmic fraction, KYSE-150 FLAG-SMYD2
  reduction of Lys370 methylation on cytoplasmic p53: 50%
p53 Lys370 methylation; nuclear fraction, KYSE-150 FLAG-SMYD2
  reduction of Lys370 methylation on nuclear p53: 25%
hABL1(T315I)
  pIC50: < 4.70
hAURKA
  pIC50: < 4.70
hBLK
  pIC50: < 4.70
hBMPR1B
  pIC50: < 4.70
hCAMK1D
  pIC50: < 4.70
hCDKL5
  pIC50: < 4.70
hCSNK1G2
  pIC50: < 4.70
hEPHA5
  pIC50: < 4.70
hFGFR4
  pIC50: < 4.70
hGAK
  pIC50: < 4.70
hIRAK1
  pIC50: < 4.70
hJNK3
  pIC50: < 4.70
hLRRK2
  pIC50: < 4.70
hLTK
  pIC50: < 4.70
hMAP3K3
  pIC50: < 4.70
hMARK3
  pIC50: < 4.70
hMKK7
  pIC50: < 4.70
hMKNK1
  pIC50: < 4.70
hRIOK3
  pIC50: < 4.70
hRIPK5
  pIC50: < 4.70
[1]
  pIC50: < 4.70
hS6K1
  pIC50: < 4.70
hSGK
  pIC50: < 4.70
hSRPK2
  pIC50: < 4.70
hTYK2(JH1Dom.-catalytic)
  pIC50: < 4.70
hULK2
  pIC50: < 4.70
hWNK3
  pIC50: < 4.70
CYP2D6
  % inhibition @ 10 μM: 61.2%
hADRβ2
  inhibition at 10 µM: -15.6%
hFXR
  pIC50: < 5.00
h5HT2B
  % Effect, Potentiation: -7.3%

From paper PMC4447944 (The Journal of Biological Chemistry, 2015)
